Test: xn = mol fraction of the nth substance listed

O=C([O-])C(F)(F)F.O=S(=O)(O)n1cc[n+](S(=O)(=O)O)c1 + CC#N
101 kPa
Conditions	electrical conductivity [S/m]
278.15 K, x1 = 0.02551	1.83
283.15 K, x1 = 0.02551	1.78
288.15 K, x1 = 0.02551	1.62
293.15 K, x1 = 0.02551	1.59
298.15 K, x1 = 0.0052	0.305
298.15 K, x1 = 0.0104	0.52
298.15 K, x1 = 0.0155	0.949
298.15 K, x1 = 0.0205	1.15
298.15 K, x1 = 0.0255	1.54
298.15 K, x1 = 0.02551	1.54
298.15 K, x1 = 0.05	2.02
303.15 K, x1 = 0.02551	1.27
308.15 K, x1 = 0.02551	1.25
313.15 K, x1 = 0.02551	1.25
318.15 K, x1 = 0.02551	1.25
323.15 K, x1 = 0.02551	0.803
328.15 K, x1 = 0.02551	0.486
333.15 K, x1 = 0.02551	0.401

O=c1cc[nH]c(=O)[nH]1 + CC(=O)[O-].CC[n+]1ccn(C)c1
Conditions	viscosity [mPa·s]
298.15 K, 100 kPa, x1 = 0.233	773

CC[n+]1ccn(C)c1.O=S(=O)([O-])C(F)(F)F + CCC(C)O
101 kPa
Conditions	viscosity [mPa·s]
298.15 K, x1 = 0.7986	30.77
298.15 K, x1 = 1	45.67
303.15 K, x1 = 0.3938	6.96
303.15 K, x1 = 0.4988	9.31
303.15 K, x1 = 0.5952	13.31
303.15 K, x1 = 0.7986	26.05
308.15 K, x1 = 0.3938	6.16
308.15 K, x1 = 0.903	28.15
313.15 K, x1 = 0.1945	3.63
313.15 K, x1 = 0.4988	7.33
313.15 K, x1 = 0.5952	10.28
313.15 K, x1 = 0.6907	14.61
313.15 K, x1 = 1	27.68
318.15 K, x1 = 0.4988	6.57
318.15 K, x1 = 0.903	20.96
323.15 K, x1 = 0.6907	11.38
323.15 K, x1 = 0.903	18.3

CCCCCCCCCCCCCC[P+](CCCCCC)(CCCCCC)CCCCCC.N#C[N-]C#N + CCCCCCCCCCCC
101 kPa
Conditions	viscosity [mPa·s]
303.15 K, x1 = 1	328
308.15 K, x1 = 0.5534	90
313.15 K, x1 = 0.736	112
323.15 K, x1 = 0.5534	47.4
323.15 K, x1 = 0.736	72.7
323.15 K, x1 = 1	123
328.15 K, x1 = 0.5534	39.2
328.15 K, x1 = 0.736	60
343.15 K, x1 = 0.5534	24.2
353.15 K, x1 = 1	41

CCCCC[N+](CCCCC)(CCCCC)CCCCC.[Br-] + CCCCCCCCCCCCOS(=O)(=O)[O-].[Na+] + O
viscosity [mPa·s], 100 kPa
Conditions	x2 = 1.81e-06, x1 = 0.0001802	x2 = 3.62e-06, x1 = 0.0001802	x2 = 5.43e-06, x1 = 0.0001802	x2 = 7.23e-06, x1 = 0.0001802	x2 = 9.04e-06, x1 = 0.0001802	x2 = 1.085e-05, x1 = 0.0001802	x2 = 1.266e-05, x1 = 0.0001802	x2 = 1.447e-05, x1 = 0.0001802	x2 = 1.628e-05, x1 = 0.0001802	x2 = 1.808e-05, x1 = 0.0001802
293.15 K	1.024	1.026	1.027	1.028	1.028	1.029	1.029	1.029	1.03	1.03
298.15 K	0.914	0.916	0.917	0.917	0.919	0.92	0.921	0.921	0.922	0.922
303.15 K	0.8	0.801	0.802	0.803	0.803	0.803	0.803	0.803	0.804	0.805
308.15 K	0.723	0.723	0.724	0.724	0.724	0.724	0.725	0.725	0.726	0.726
313.15 K	0.658	0.659	0.66	0.66	0.661	0.661	0.661	0.661	0.662	0.662
318.15 K	0.604	0.605	0.605	0.605	0.606	0.606	0.606	0.606	0.606	0.606

Source: the CheMixHub ionic liquid set
